Measurements reported in ChEMBL document CHEMBL1145605, “Novel 2-imidazoles as potent and selective alpha1A adrenoceptor partial agonists” (Bioorg Med Chem Lett, 2008).

Columns and labels:
[1] = Partition coefficient, log D at pH 7.4; type: physicochemical; conditions: octanol/water
[2] = Intrinsic clearance in human liver microsomes; type: ADME, Microsome
CYP2C9 = CYP2C9 (Homo sapiens, UniProt P11712); experiment: Inhibition of CYP2C9 at 10 uM; type: ADME
[3] = target: T1, Alpha-1A adrenergic receptor (Homo sapiens) (UniProt P35348); experiment: Agonist activity at human cloned adrenergic alpha-1A receptor expressed in CHO cells assessed as calcium mobilization by FLIPR relative to phenylephrine; type: functional, cell-based
T1 sequence (whole entry): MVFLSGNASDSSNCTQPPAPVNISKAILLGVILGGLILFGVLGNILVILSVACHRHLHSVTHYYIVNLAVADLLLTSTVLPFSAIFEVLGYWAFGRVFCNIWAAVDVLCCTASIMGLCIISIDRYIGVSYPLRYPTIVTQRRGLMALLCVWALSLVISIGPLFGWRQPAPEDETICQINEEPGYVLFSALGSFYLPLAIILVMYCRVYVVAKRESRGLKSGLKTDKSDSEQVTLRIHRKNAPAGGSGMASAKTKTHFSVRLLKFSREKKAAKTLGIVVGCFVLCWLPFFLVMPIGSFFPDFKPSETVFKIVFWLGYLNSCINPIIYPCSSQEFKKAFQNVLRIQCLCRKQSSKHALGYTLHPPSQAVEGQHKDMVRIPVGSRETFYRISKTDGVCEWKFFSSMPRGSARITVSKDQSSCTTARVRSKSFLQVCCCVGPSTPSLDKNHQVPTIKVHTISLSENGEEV

[4] = target: T2, Alpha-1D adrenergic receptor (Homo sapiens, UniProt P25100); experiment: Agonist activity at human cloned adrenergic Alpha-1D receptor expressed in CHO cells assessed as calcium mobilization by FLIPR; type: functional, cell-based
T2 sequence (P25100 whole entry): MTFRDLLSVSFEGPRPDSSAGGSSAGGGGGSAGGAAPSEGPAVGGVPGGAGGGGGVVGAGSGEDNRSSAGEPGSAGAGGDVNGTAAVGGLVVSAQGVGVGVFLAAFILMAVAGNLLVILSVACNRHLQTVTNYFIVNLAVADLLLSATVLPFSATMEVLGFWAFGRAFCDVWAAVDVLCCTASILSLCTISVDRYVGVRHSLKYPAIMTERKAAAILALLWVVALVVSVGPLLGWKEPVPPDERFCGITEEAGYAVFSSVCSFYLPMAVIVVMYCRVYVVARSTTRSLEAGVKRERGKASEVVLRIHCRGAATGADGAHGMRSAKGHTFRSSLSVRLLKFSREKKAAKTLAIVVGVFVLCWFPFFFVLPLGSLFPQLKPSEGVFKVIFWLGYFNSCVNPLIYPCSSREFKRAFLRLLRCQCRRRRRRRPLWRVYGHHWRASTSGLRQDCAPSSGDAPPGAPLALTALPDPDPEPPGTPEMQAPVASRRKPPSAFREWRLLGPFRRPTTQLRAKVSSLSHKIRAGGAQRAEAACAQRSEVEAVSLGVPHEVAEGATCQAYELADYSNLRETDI

[5] = target: T3, Alpha-1B adrenergic receptor (Homo sapiens, UniProt P35368); experiment: Agonist activity at human cloned adrenergic alpha-1B receptor expressed in CHO cells assessed as calcium mobilization by FLIPR; type: functional, cell-based
T3 sequence (P35368 whole entry): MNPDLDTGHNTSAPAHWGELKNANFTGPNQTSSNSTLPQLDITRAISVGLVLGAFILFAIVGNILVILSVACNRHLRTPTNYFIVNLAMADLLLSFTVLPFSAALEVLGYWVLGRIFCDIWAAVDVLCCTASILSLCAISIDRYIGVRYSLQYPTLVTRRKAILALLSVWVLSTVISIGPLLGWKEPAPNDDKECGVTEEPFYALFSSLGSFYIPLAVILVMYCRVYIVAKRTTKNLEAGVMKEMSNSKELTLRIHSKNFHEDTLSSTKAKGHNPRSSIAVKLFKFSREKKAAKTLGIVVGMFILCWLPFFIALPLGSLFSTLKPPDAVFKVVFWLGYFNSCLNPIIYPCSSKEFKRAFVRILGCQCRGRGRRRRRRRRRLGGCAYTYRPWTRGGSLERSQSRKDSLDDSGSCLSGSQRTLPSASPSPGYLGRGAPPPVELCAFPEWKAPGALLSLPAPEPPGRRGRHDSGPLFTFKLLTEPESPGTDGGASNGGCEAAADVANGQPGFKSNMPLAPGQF

CYP2D6 = CYP2D6 (Homo sapiens, UniProt P10635); experiment: Inhibition of CYP2D6 at 10 uM; type: ADME
CYP2D6, sequence (P10635 whole entry): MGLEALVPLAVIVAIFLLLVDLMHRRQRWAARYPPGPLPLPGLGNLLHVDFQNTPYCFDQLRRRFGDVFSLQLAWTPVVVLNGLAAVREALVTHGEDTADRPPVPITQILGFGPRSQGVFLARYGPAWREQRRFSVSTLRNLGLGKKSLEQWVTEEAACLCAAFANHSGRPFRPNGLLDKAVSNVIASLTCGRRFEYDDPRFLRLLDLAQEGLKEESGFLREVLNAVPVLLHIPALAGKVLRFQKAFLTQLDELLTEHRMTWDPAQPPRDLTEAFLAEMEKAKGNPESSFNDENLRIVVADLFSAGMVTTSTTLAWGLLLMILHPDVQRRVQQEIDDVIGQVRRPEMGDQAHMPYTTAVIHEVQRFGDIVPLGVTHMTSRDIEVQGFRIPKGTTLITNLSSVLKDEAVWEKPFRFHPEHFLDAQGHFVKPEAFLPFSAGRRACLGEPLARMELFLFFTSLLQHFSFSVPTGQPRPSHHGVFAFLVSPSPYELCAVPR

CYP3A4 = CYP3A4 (Homo sapiens, UniProt P08684); experiment: Inhibition of CYP3A4 at 10 uM; type: ADME
CYP3A4, sequence (P08684 whole entry): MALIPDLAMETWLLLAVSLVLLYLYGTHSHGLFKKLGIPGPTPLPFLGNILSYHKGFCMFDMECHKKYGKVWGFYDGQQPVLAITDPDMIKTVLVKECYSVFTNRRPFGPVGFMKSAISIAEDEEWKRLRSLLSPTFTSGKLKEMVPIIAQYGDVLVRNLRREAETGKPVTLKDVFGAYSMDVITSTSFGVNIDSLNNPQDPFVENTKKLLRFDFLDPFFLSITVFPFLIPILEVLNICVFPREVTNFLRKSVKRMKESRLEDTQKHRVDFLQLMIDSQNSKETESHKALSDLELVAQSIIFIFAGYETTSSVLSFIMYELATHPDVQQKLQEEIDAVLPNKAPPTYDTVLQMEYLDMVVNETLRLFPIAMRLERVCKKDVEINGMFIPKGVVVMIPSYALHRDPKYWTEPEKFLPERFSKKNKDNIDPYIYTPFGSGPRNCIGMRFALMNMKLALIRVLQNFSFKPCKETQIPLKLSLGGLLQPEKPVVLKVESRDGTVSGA

CYP2C19 = CYP2C19 (Homo sapiens, UniProt P33261); experiment: Inhibition of CYP2C19 at 10 uM; type: ADME
CYP2C19, sequence (P33261 whole entry): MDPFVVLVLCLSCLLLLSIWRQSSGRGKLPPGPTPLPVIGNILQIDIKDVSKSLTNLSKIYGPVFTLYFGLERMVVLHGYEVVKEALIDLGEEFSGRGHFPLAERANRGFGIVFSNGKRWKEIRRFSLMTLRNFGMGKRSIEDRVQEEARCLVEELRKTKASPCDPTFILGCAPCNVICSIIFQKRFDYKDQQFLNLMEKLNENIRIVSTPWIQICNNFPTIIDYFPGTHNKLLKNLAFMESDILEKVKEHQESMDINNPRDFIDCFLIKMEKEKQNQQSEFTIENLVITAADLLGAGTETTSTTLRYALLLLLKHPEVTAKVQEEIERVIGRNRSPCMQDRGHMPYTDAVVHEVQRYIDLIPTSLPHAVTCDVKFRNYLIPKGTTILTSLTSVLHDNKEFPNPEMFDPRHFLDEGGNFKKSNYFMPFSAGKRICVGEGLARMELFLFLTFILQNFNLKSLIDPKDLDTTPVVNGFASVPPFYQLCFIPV

[6] = target: T4, Alpha-1A adrenergic receptor (Homo sapiens, UniProt P35348); experiment: Agonist activity at human cloned adrenergic alpha-1A receptor expressed in CHO cells assessed as calcium mobilization by FLIPR; type: functional, cell-based
T4 sequence (P35348 whole entry): T1 sequence (whole entry)

[7] = Intrinsic clearance per 10^6 cells in human hepatocytes; type: ADME, cell-based, Liver, Hepatocyte
[8] = target: Voltage-gated inwardly rectifying potassium channel KCNH2 (Homo sapiens, UniProt Q12809); experiment: Activity at human ERG at 10 uM
Voltage-gated inwardly rectifying potassium channel KCNH2, sequence (Q12809 whole entry): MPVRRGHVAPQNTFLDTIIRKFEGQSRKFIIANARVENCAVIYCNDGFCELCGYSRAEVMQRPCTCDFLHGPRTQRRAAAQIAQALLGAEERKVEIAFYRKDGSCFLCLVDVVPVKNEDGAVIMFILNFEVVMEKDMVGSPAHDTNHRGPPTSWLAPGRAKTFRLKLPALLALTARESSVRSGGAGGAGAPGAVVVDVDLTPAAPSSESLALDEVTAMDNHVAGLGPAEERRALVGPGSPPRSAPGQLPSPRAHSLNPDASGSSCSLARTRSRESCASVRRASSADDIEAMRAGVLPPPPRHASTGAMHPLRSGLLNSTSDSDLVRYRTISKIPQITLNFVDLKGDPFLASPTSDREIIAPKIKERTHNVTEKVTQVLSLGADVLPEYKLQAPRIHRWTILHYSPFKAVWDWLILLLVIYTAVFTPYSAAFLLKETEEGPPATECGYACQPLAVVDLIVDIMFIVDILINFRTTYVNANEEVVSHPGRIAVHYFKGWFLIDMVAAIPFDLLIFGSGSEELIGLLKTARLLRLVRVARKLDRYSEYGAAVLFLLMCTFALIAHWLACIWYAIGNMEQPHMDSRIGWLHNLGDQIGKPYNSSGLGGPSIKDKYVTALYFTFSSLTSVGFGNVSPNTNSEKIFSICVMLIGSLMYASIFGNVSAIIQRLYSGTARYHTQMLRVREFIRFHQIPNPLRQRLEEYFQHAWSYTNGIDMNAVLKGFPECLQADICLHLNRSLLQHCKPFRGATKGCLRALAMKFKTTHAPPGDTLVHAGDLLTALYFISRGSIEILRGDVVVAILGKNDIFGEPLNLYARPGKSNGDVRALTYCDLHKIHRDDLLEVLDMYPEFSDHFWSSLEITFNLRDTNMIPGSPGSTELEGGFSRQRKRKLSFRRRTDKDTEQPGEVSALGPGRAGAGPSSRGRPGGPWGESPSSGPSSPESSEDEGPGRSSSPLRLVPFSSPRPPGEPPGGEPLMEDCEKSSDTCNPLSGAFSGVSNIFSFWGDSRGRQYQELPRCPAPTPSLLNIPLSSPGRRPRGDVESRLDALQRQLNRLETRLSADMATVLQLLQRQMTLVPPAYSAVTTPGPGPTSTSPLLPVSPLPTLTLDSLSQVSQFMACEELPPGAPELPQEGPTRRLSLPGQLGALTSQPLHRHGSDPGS

[9] = target: T5, Alpha-2A adrenergic receptor (Homo sapiens, UniProt P08913); experiment: Agonist activity at human cloned adrenergic alpha-2A receptor expressed in CHOK1 cells by beta-lactamase reporter gene assay; type: functional, cell-based, CHO-K1
T5 sequence (P08913 whole entry): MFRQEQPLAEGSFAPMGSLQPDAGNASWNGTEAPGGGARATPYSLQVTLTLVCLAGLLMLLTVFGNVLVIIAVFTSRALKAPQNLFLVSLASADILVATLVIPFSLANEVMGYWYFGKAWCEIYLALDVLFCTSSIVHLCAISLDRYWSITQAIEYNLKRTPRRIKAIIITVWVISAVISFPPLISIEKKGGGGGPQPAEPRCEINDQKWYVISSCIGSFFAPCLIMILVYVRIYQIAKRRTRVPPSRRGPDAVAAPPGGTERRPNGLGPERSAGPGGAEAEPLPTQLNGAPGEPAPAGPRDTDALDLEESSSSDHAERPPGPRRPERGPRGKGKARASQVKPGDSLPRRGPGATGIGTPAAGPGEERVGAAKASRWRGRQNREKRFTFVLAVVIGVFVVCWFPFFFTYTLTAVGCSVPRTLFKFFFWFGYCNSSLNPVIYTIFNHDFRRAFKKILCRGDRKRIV

CYP2C9, sequence (P11712 whole entry): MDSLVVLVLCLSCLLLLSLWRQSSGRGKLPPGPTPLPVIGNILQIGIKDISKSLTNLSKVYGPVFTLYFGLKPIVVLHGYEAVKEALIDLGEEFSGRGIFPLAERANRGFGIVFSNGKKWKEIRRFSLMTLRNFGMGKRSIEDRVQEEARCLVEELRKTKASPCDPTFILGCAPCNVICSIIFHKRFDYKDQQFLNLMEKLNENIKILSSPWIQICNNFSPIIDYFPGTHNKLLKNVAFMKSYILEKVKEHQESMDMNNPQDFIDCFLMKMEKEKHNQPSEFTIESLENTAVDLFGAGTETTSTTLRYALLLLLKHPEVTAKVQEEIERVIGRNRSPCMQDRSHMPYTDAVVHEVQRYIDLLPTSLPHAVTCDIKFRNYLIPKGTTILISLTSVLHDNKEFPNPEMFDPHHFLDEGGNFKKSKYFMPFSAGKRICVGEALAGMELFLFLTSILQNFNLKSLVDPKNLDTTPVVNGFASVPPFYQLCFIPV

CS(=O)(=O)Nc1c(Cl)ccc2c1CCCC2c1ncc[nH]1 (stereo not drawn)
logD [1]: 1.5
microsomal CLint [2]: < 7 µL/min/mg
inhibition at 10 µM (CYP2C9): < 25%
Emax [3]: 61%
EC50 [4]: > 10 µM
EC50 [5]: > 10 µM
inhibition at 10 µM (CYP2D6): < 25%
inhibition at 10 µM (CYP3A4): < 25%
inhibition at 10 µM (CYP2C19): < 25%
EC50 [6]: 0.043 µM
hepatocyte CLint [7]: < 5 µL/min/1e6 cells
Activity [8]: 0%
EC50 [9]: > 10 µM
